Reference: patent US20160311788A1, “Antifouling Compounds And Use Thereof” (National University of Singapore, priority 2008, published 2016)
Structures can show the parent of a compound that is named as a salt.

Assays:
[1] = test system: Pseudomonas aeruginosa (strain LMG 12228; ATCC 15692); assay: disc inhibition assay, REF 3; format: cell-based
Experimental: (§1) 13 strains of marine bacteria were isolated from fouling communities located in the coastal waters around Singapore. These were characterized in earlier studies and reported in Teo et al. (U.S. patent application Ser. No. 11/265,833) and Choong et al (in prep). In addition, four reference bacterial strains were added tested: Escherichia coli (Strain K12, ATCC 15222), E. coli (strain DH5a), Pseudomonas aeruginosa (strain LMG 12228; ATCC 15692) and P. putida (strain KT2440; ATCC 47054). All the bacteria were also tested against five antibiotics: ampicillin (AMP), tetracycline (TETR), erythromycin (ERY), chloramphenicol (CHL) and streptomycin (STREP).
(§2) Disks comprising the compounds to be tested were prepared as follows. The antibacterial assay, the pure compounds were made up to a concentration of 2 mgml^−1 in DMSO. 25 μl of the stock was pipetted onto each 6 mm sterile disc (Macherey-Nagel #484000) to obtain 50 μg of compound per disc. Equivalent volume of DMSO was used inoculated for the control.
(§3) For all disk inhibition assays, bacterial cultures were grown in marine broth (Pronadisa #1217.00). Sterile swabs dipped into the cultures were used to inoculate Marine Agar plates with a bacterial lawn by smearing the culture over the surface. After inoculating the plates, discs with antibiotics, pharmaceuticals or control blanks were placed on each plate. Each concentration of antibiotic or pharmaceutical was tested with two replicates. After the disks were placed on the agar surface, plates were incubated overnight in the dark at 35° C. After incubation, plates were examined for zones of inhibition or clearing around control and treated disks. The diameter of any zone of clearing or inhibition was measured using Vernier calipers. There were two replicates per treatment, and the average was taken. There was no zone of inhibition around the control blanks in all the assays.

[2] = test system: marine bacteria strain S14; assay: disc inhibition assay, strain S14; format: cell-based, Vibrio probioticus; details: Vibrio, S14, 24 h
[3] = test system: marine bacteria strain S27; assay: disc inhibition assay, strain S27; format: cell-based, Tenacibaculum lutimaris
Outline: (§4)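 Zone-of-inhibition diameters (caliper, n=2 averaged) were recorded after overnight dark incubation at 35° C. Test discs of 6 mm bore 50 μg compound delivered in DMSO, placed on lawns of the marine strain grown in marine broth and spread on Marine Agar; solvent discs served as controls.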

[4] = test system: marine bacteria strain S17; assay: disc inhibition assay, strain S17; format: cell-based, Gordonia terrae
Outline: as §4

[5] = test system: Pseudomonas putida (Strain KT2440; BCRC 10459); assay: disc inhibition assay, REF 4; format: cell-based
Experimental: as §1, §2, §3

[6] = test system: marine bacteria strain S10; assay: disc inhibition assay, strain S10; format: cell-based, Halobacillus trueperi; details: Halobacillus trueperi, S10, 24 h; for zone of inhibition at 10 µg/disc: strain 10, 10 ug
Outline: as §4

[7] = test system: marine bacteria strain S9; assay: disc inhibition assay, strain S9; format: cell-based, Bacillus algicola; details: Guptibacillus algicola, S9, 24 h; for zone of inhibition at 10 µg/disc: strain 9, 10 ug
Outline: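 50 μg compound/6 mm disc (from 2 mg/ml DMSO stock); DMSO blank disc control. Lawn swabbed on Marine Agar from marine broth culture. Overnight, 35° C, dark. Readout: inhibition zone diameter (calipers), mean of 2 replicates.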

[8] = test system: Escherichia coli (Strain DH5a); assay: disc inhibition assay, REF 2; format: cell-based
Experimental: as §1, §2, §3

[9] = test system: marine bacteria strain S3; assay: disc inhibition assay, strain S3; format: cell-based, Erythrobacter aquimaris
Outline: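 Disc inhibition assay against a marine bacterial strain isolated from fouling communities in Singapore coastal waters. The strain was grown in marine broth and swabbed over Marine Agar plates as a lawn. 6 mm sterile discs loaded with compound in DMSO, or DMSO controls, were placed on the plates and incubated overnight in the dark at 35° C.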

[10] = test system: marine bacteria strain S28; assay: disc inhibition assay, strain S28; format: cell-based, Arthrobacter protophormial; details: Arthrobacter, S28, 24 h; for zone of inhibition at 10 µg/disc: strain 28, 10 ug
Outline: as §4

[11] = test system: marine bacteria strain S29; assay: disc inhibition assay, strain S29; format: cell-based, Bacillus hwajinpoensis; details: Guptibacillus hwajinpoensis, S29, 24 h; for zone of inhibition at 10 µg/disc: strain 29, 10 ug
Outline: as §4

[12] = test system: marine bacteria strain S18; assay: disc inhibition assay, strain S18; format: cell-based, Microbacterium esteraromaticum; details: Microbacterium esteraromaticum, S18, 24 h; for zone of inhibition at 10 µg/disc: strain 18, 10 ug
[13] = test system: Escherichia coli (Strain K12; ATCC 15222); assay: disc inhibition assay, REF 1; format: cell-based
Experimental: as §1, §2, §3

[14] = test system: marine bacteria strain S16; assay: disc inhibition assay, strain S16; format: cell-based, Pseudoalteromonas piscicida; details: Pseudoalteromonas piscicida, S16, 24 h; for zone of inhibition at 10 µg/disc: strain 16, 10 ug
Outline: as §4

[15] = test system: marine bacteria strain S4; assay: disc inhibition assay, strain S4; format: cell-based, Bacillus algicola; details: Guptibacillus algicola, S4, 24 h; for zone of inhibition at 10 µg/disc: strain 4, 10 ug
Outline: as §4

[16] = test system: marine bacteria strain S1; assay: disc inhibition assay, strain S1; format: cell-based, Rhodovulum iodosum; details: Rhodovulum iodosum, S1; for zone of inhibition at 10 µg/disc: strain 1, 10 ug
Outline: as §4

[17] = test system: marine bacteria strain S30; assay: disc inhibition assay, strain S30; format: cell-based, Bacillus borophilicus; details: Bacillus, S30, 24 h; for zone of inhibition at 10 µg/disc: strain 30, 10 ug
Outline: as §4

[18] = cited from earlier work

## [H]/N=C(/N)N[C@H]1[C@H](O)[C@@H](O)[C@H](O[C@@H]2O[C@@H](C)[C@](O)(C=O)[C@H]2O[C@@H]2O[C@@H](CO)[C@H](O)[C@@H](O)[C@@H]2NC)[C@@H](N/C(N)=N\[H])[C@@H]1O [STREP, Streptomycin, reference compound]
[1]; REF 3, 10 ug
  zone of inhibition: + (2-5 mm zone of inhibition around each disk was observed.)
[1]; REF 3, 25 ug
  zone of inhibition: ++ (5-10 mm zone was observed.)
[2]
  zone of inhibition at 10 µg/disc: 2 to 5 mm
  zone of inhibition at 25 µg/disc: 2 to 5 mm
[3]; strain 27, 10 ug
  zone of inhibition: −
[3]; strain 27, 25 ug
  zone of inhibition: −
[4]; Gordonia terrae, S17, 24 h, strain 17, 10 ug
  zone of inhibition at 10 µg/disc: 2 to 5 mm
[4]; Gordonia terrae, S17, 24 h, strain 17, 25 ug
  zone of inhibition at 25 µg/disc: 5 to 10 mm
[5]; REF 4, 10 ug
  zone of inhibition: + (2-5 mm zone of inhibition around each disk was observed.)
[5]; REF 4, 25 ug
  zone of inhibition: ++ (5-10 mm zone was observed.)
[6]
  zone of inhibition at 10 µg/disc: 2 to 5 mm
[6]; strain 10, 25 ug
  zone of inhibition at 25 µg/disc: 2 to 5 mm
[7]
  zone of inhibition at 10 µg/disc: 2 to 5 mm
[7]; strain 9, 25 ug
  zone of inhibition at 25 µg/disc: 2 to 5 mm
[8]; REF 2, 10 ug
  zone of inhibition: −
[8]; REF 2, 25 ug
  zone of inhibition: −
[9]; strain 3, 10 ug
  zone of inhibition: −
[9]; strain 3, 25 ug
  zone of inhibition: −
[10]
  zone of inhibition at 10 µg/disc: 2 to 5 mm
[10]; strain 28, 25 ug
  zone of inhibition at 25 µg/disc: 5 to 10 mm
[11]
  zone of inhibition at 10 µg/disc: 2 to 5 mm
[11]; strain 29, 25 ug
  zone of inhibition at 25 µg/disc: 5 to 10 mm
[12]
  zone of inhibition at 10 µg/disc: 2 to 5 mm
[12]; strain 18, 25 ug
  zone of inhibition at 25 µg/disc: 5 to 10 mm
[13]; REF 1, 10 ug
  zone of inhibition: + (2-5 mm zone of inhibition around each disk was observed.)
[13]; REF 1, 25 ug
  zone of inhibition: ++ (5-10 mm zone was observed.)
[14]
  zone of inhibition at 10 µg/disc: 2 to 5 mm
[14]; strain 16, 25 ug
  zone of inhibition at 25 µg/disc: 5 to 10 mm
[15]
  zone of inhibition at 10 µg/disc: 2 to 5 mm
[15]; strain 4, 25 ug
  zone of inhibition at 25 µg/disc: 5 to 10 mm
[16]
  zone of inhibition at 10 µg/disc: 5 to 10 mm
[16]; strain 1, 25 ug
  zone of inhibition at 25 µg/disc: > 10 mm
[17]
  zone of inhibition at 10 µg/disc: 2 to 5 mm
[17]; strain 30, 25 ug
  zone of inhibition at 25 µg/disc: 5 to 10 mm

## CN(C)C(=O)C(CCN1CCC(O)(c2ccc(Cl)cc2)CC1)(c1ccccc1)c1ccccc1 [Loperamide hydrochloride]
[18]
  solubility in water: slightly soluble

## CC1(C)S[C@@H]2[C@H](NC(=O)[C@H](N)c3ccccc3)C(=O)N2[C@H]1C(=O)O [AMP, Ampicillin, reference compound]
[1]; REF 3, 2 ug
  zone of inhibition: −
[1]; REF 3, 10 ug
  zone of inhibition: −
[2]
  zone of inhibition at 2 µg/disc: 2 to 5 mm
  zone of inhibition at 10 µg/disc: 2 to 5 mm
[3]; Tenacibaculum lutimaris, S27, 24 h, strain 27, 2 ug
  zone of inhibition at 2 µg/disc: 5 to 10 mm
[3]; Tenacibaculum lutimaris, S27, 24 h, strain 27, 10 ug
  zone of inhibition at 10 µg/disc: > 10 mm
[4]; strain 17, 2 ug
  zone of inhibition: −
[4]; strain 17, 10 ug
  zone of inhibition: −
[5]; REF 4, 2 ug
  zone of inhibition: −
[5]; REF 4, 10 ug
  zone of inhibition: + (2-5 mm zone of inhibition around each disk was observed.)
[6]; strain 10, 2 ug
  zone of inhibition at 2 µg/disc: > 10 mm
[6]
  zone of inhibition at 10 µg/disc: > 10 mm
[7]; strain 9, 2 ug
  zone of inhibition at 2 µg/disc: 2 to 5 mm
[7]
  zone of inhibition at 10 µg/disc: > 10 mm
[8]; REF 2, 2 ug
  zone of inhibition: −
[8]; REF 2, 10 ug
  zone of inhibition: + (2-5 mm zone of inhibition around each disk was observed.)
[9]; strain 3, 2 ug
  zone of inhibition: −
[9]; strain 3, 10 ug
  zone of inhibition: −
[10]; strain 28, 2 ug
  zone of inhibition at 2 µg/disc: 2 to 5 mm
[10]
  zone of inhibition at 10 µg/disc: 5 to 10 mm
[11]; strain 29, 2 ug
  zone of inhibition at 2 µg/disc: > 10 mm
[11]
  zone of inhibition at 10 µg/disc: > 10 mm
[12]; strain 18, 2 ug
  zone of inhibition at 2 µg/disc: 2 to 5 mm
[12]
  zone of inhibition at 10 µg/disc: 5 to 10 mm
[13]; REF 1, 2 ug
  zone of inhibition: −
[13]; REF 1, 10 ug
  zone of inhibition: + (2-5 mm zone of inhibition around each disk was observed.)
[14]; strain 16, 2 ug
  zone of inhibition at 2 µg/disc: 2 to 5 mm
[14]
  zone of inhibition at 10 µg/disc: 2 to 5 mm
[15]; strain 4, 2 ug
  zone of inhibition at 2 µg/disc: > 10 mm
[15]
  zone of inhibition at 10 µg/disc: > 10 mm
[16]; strain 1, 2 ug
  zone of inhibition at 2 µg/disc: 5 to 10 mm
[16]
  zone of inhibition at 10 µg/disc: 5 to 10 mm
[17]; strain 30, 2 ug
  zone of inhibition at 2 µg/disc: > 10 mm
[17]
  zone of inhibition at 10 µg/disc: > 10 mm

## O=C(N[C@H](CO)[C@H](O)c1ccc([N+](=O)[O-])cc1)C(Cl)Cl [CHL, Chloramphenicol, reference compound]
[1]; REF 3, 30 ug
  zone of inhibition: ++ (5-10 mm zone was observed.)
[2]
  zone of inhibition at 30 µg/disc: 5 to 10 mm
[3]; Tenacibaculum lutimaris, S27, 24 h, strain 27, 30 ug
  zone of inhibition at 30 µg/disc: > 10 mm
[4]; Gordonia terrae, S17, 24 h, strain 17, 30 ug
  zone of inhibition at 30 µg/disc: > 10 mm
[5]; REF 4, 30 ug
  zone of inhibition: ++ (5-10 mm zone was observed.)
[6]; strain 10, 30 ug
  zone of inhibition at 30 µg/disc: > 10 mm
[7]; strain 9, 30 ug
  zone of inhibition at 30 µg/disc: > 10 mm
[8]; REF 2, 30 ug
  zone of inhibition: ++ (5-10 mm zone was observed.)
[9]; Qipengyuania aquimaris, S3, 24 h, strain 3, 30 ug
  zone of inhibition at 30 µg/disc: > 10 mm
[10]; strain 28, 30 ug
  zone of inhibition at 30 µg/disc: > 10 mm
[11]; strain 29, 30 ug
  zone of inhibition at 30 µg/disc: > 10 mm
[12]; strain 18, 30 ug
  zone of inhibition at 30 µg/disc: 5 to 10 mm
[13]; REF 1, 30 ug
  zone of inhibition: ++ (5-10 mm zone was observed.)
[14]; strain 16, 30 ug
  zone of inhibition at 30 µg/disc: 5 to 10 mm
[15]; strain 4, 30 ug
  zone of inhibition at 30 µg/disc: > 10 mm
[16]; strain 1, 30 ug
  zone of inhibition at 30 µg/disc: 5 to 10 mm
[17]; strain 30, 30 ug
  zone of inhibition at 30 µg/disc: 5 to 10 mm
